Source: publication PMC11352409, “Subtype-Specific Ligand Binding and Activation Gating in Homomeric and Heteromeric P2X Receptors” (Biomolecules, 2024)
“And” between values parts separate entries of the source, which are not always exact repeats. Equal values may be shown once.

Tests used:
Format in all cases: cell-based
human P2X2 receptors = molecular target: T1, human P2X2 receptors (Homo sapiens, UniProt Q9UBL9); test: Whole-cell patch-clamp concentration-activation, HEK293 cells stably expressing hP2X2; conditions: for Hill: hP2X2, Hill coefficient of concentration-activation fit; for Effect (Fold in ATP Potency): hP2X2, relative to ATP; for Effect (Fold in ATP Efficacy): hP2X2, relative to current at 100 µM ATP; for EC50: hP2X2, whole-cell, -50 mV, divalent-cation-free bath with 10 mM EGTA, normalised to 100 µM ATP
T1 construct: expressed in transfected cells
T1 sequence (Q9UBL9 1-404 isoform Q9UBL9-2): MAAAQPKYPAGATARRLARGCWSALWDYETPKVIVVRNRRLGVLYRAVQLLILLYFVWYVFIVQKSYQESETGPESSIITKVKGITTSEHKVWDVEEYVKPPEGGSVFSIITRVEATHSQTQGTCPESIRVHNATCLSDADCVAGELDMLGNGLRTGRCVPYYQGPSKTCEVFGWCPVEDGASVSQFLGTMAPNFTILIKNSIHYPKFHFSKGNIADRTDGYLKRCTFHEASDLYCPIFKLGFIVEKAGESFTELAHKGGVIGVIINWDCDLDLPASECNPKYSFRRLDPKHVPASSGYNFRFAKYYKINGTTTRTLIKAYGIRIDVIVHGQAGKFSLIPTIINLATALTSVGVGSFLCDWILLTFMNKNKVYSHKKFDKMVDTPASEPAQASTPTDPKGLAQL
Protocol: (§1) Human P2X receptors were expressed from HEK293 cell lines containing an inducible promoter system (Flp-In-T-REx 293, Invitrogen, Waltham, MA, USA). The used cell lines were: hP2X2 B (RRID: AC line CVCL_D6U1), hP2X3 (RRID: AC line CVCL_D6U3), and hP2X2/3 (RRID: AC line CVCL_D6U2). The cells were cultured in MEM supplemented with non-essential amino acids (Gibco, Waltham, MA, USA), 10% FCS, and antibiotics, according to the manufacturer’s instructions. For stable cell lines, Flp-In-T-REx 293 cells were transfected using the calcium phosphate method with a mixture of plasmids (0.3 µg pcDNA5/FRT/TO P2X gene and 1.5 µg pOG44) and selected for hygromycin resistance. The cells were seeded on glass coverslips for electrophysiological measurements and used 24–48 h after tetracycline induction ([…]).
(§2) Membrane currents were recorded with a standard patch-clamp technique in the whole-cell configuration. The patch pipettes were pulled from borosilicate glass (ID 1.0 mm, OD 2.0 mm; VITROCOM, Mountain Lakes, NJ, USA) using a micropipette puller (P-97, Sutter Instrument, Novato, CA, USA). The pipettes were filled with intracellular solution containing (mM) 142 NaCl, 5 BAPTA, 5 EGTA, and 10 HEPES at pH 7.4. The pipette resistance was from 2.0 to 6.0 MΩ. The bath solution contained (mM) 142 NaCl, 10 EGTA, 10 HEPES, and 10 glucose at pH 7.4. To increase the speed of recovery from the hP2X3 receptors, we additionally used a bath solution containing (mM) 142 NaCl, 10 HEPES, 10 glucose, 2 CaCl2, and 1 MgCl2. The cells were lifted for recording from the chamber bottom by the patch pipette and positioned in front of the outlet of the application pipette.
(§3) Solutions switches were carried out with the application pipette that had three barrels (inner diameter ~600 µm, Warner Instruments) controlled by a step motor (SF-77B, Warner Instruments). The speed of the laminar solution flow out of the barrels was estimated to be 2–5 cm/s. One barrel contained a control solution and another was connected to a solution selector (Vici Valco Instruments), which allowed us to apply different test solutions by exchanging the solution during the interval (60 sec for P2X2 and P2X2/3 receptors, 180 s for P2X3 receptors) of applying the control solution. Cells expressing hP2X3 were washed with 3 Units/mL apyrase for 30 min to remove ATP. To ensure the comparability of the data points between each application, we rinsed hP2X3 with the following solution for 3 min after each ATP application (mM): 142 NaCl, 10 HEPES, 10 glucose, 2 CaCl2, and 1 MgCl2 at pH 7.4. After sufficient recovery, we switched to the bath solution for 10 s and then to the solution of interest. The speed of the switch around a whole cell was estimated to be below 10 ms by switching between different salt solutions.
(§4) The saturation of activation was determined with ATP at 100 µM. The currents were recorded with a HEKA EPC 10 amplifier in combination with the patchmaster software. The sampling rate was 10 kHz and the recordings were on-line filtered at 2.9 kHz using a four-pole Bessel filter. The currents were recorded at a constant holding potential of −50 mV and the series resistance was compensated with the patchmaster software up to 80%.
(§5) The concentration–activation relationships from whole-cell measurements in the HEK293 cells were obtained from the maximum currents during ATP application. These current amplitudes were normalised with respect to the current at saturating ATP (100 µM) and the resulting data points were fitted I/ImaxATP = Amp/(1 + (EC50/[X])^h) (1) with the Origin 2019® software using a non-linear curve fitting routine. I is the actual current amplitude and ImaxATP is the maximum current amplitude at saturating ATP. The amplitude Amp is the efficacy of the respective ligands. EC50 is the ligand concentration generating the half-maximum current and h is the respective Hill coefficient. [X] is the actual concentration of ATP to be tested. […]

human P2X2/3 receptors = molecular target: T2, human P2X2/3 receptors (Homo sapiens, UniProt P56373+Q9UBL9); test: Whole-cell patch-clamp concentration-activation, HEK293 cells stably expressing hP2X2/3
T2 construct: expressed in transfected cells
T2 sequence (Q9UBL9 1-404 isoform Q9UBL9-2): T1 sequence (Q9UBL9 1-404 isoform Q9UBL9-2)
T2 sequence (P56373 1-397): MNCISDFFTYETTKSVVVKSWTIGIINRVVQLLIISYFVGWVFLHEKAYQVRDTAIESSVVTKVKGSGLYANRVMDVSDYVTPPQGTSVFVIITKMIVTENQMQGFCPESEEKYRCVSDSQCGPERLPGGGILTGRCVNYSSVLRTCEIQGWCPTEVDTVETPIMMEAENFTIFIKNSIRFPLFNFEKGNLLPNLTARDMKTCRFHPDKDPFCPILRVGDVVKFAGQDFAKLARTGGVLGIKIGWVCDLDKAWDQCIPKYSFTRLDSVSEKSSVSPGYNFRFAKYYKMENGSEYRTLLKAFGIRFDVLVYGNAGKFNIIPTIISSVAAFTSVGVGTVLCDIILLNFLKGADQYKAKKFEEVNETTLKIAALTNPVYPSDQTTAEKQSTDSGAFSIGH
Protocol: as §1, §2, §3, §4, §5

human P2X3 receptors = molecular target: T3, human P2X3 receptors (Homo sapiens, UniProt P56373); test: Whole-cell patch-clamp concentration-activation, HEK293 cells stably expressing hP2X3; conditions: for Hill: hP2X3, Hill coefficient of concentration-activation fit; for Effect (Fold in ATP Potency): hP2X3, relative to ATP; for Effect (Fold in ATP Efficacy): hP2X3, relative to current at 100 µM ATP; for EC50: hP2X3, whole-cell, -50 mV, divalent-cation-free bath with 10 mM EGTA, normalised to 100 µM ATP
T3 construct: expressed in transfected cells
T3 sequence (P56373 1-397): T2 sequence (P56373 1-397)
Protocol: as §1, §2, §3, §4, §5

Row | Compound | Current response in presence of Mg2+ (human P2X2 receptors; hP2X2, 0.3 µM ATP with 1 mM MgCl2 (27.5 nM ATP4- + 272.5 nM Mg2+ATP)) | Hill (human P2X2 receptors) | Effect (Fold in ATP Potency) (human P2X2 receptors) [fold] | Effect (Fold in ATP Efficacy) (human P2X2 receptors) [fold] | EC50 (human P2X2 receptors) | Hill (human P2X2/3 receptors; hP2X2/3, Hill coefficient of concentration-activation fit) | Effect (Fold in ATP Potency) (human P2X2/3 receptors; hP2X2/3, relative to ATP) [fold] | Effect (Fold in ATP Efficacy) (human P2X2/3 receptors; hP2X2/3, relative to current at 100 µM ATP) [fold] | EC50 (human P2X2/3 receptors; hP2X2/3, whole-cell, -50 mV, divalent-cation-free bath with 10 mM EGTA, normalised to 100 µM ATP) [µM] | Hill (human P2X3 receptors) | Effect (Fold in ATP Potency) (human P2X3 receptors) [fold] | Effect (Fold in ATP Efficacy) (human P2X3 receptors) [fold] | EC50 (human P2X3 receptors) [µM] | Agonist behaviour (current response) (human P2X2 receptors; hP2X2, result in words)
1 | Nc1ncnc2c1ncn2[C@@H]1O[C@H](COP(=O)(O)OP(=O)(O)OP(=O)(O)O)[C@@H](O)[C@H]1O [ATP] | completely abolished | 1.1 ± 0.1 | 1 | 1 | 0.7 ± 0.1 µM | 0.9 ± 0.1 | 1 | 1 | 2.7 ± 0.4 | 1.3 ± 0.2 | 1 | 1 | 1.1 ± 0.1 | 
2 | Nc1ncnc2c1ncn2[C@@H]1O[C@H](COP(=O)(O)CP(=O)(O)OP(=O)(O)O)[C@@H](O)[C@H]1O [α,βMe-ATP, αβmethylene-ATP] |  | 1.7 ± 1.5 | 0.1 | 0.1 | ~6.8 µM and 6.8 µM |  |  |  |  | 1.6 ± 0.7 | 0.1 | 1.9 | 9.6 ± 3.3 | only partially
